From ChEMBL document CHEMBL4476867, “Hydroxy formamide derivatives and their use” (2016) come the findings set out here.

The target of experiment [1] is T1, Bone morphogenetic protein 1 (Homo sapiens, UniProt P13497).
T1 sequence (P13497 whole entry): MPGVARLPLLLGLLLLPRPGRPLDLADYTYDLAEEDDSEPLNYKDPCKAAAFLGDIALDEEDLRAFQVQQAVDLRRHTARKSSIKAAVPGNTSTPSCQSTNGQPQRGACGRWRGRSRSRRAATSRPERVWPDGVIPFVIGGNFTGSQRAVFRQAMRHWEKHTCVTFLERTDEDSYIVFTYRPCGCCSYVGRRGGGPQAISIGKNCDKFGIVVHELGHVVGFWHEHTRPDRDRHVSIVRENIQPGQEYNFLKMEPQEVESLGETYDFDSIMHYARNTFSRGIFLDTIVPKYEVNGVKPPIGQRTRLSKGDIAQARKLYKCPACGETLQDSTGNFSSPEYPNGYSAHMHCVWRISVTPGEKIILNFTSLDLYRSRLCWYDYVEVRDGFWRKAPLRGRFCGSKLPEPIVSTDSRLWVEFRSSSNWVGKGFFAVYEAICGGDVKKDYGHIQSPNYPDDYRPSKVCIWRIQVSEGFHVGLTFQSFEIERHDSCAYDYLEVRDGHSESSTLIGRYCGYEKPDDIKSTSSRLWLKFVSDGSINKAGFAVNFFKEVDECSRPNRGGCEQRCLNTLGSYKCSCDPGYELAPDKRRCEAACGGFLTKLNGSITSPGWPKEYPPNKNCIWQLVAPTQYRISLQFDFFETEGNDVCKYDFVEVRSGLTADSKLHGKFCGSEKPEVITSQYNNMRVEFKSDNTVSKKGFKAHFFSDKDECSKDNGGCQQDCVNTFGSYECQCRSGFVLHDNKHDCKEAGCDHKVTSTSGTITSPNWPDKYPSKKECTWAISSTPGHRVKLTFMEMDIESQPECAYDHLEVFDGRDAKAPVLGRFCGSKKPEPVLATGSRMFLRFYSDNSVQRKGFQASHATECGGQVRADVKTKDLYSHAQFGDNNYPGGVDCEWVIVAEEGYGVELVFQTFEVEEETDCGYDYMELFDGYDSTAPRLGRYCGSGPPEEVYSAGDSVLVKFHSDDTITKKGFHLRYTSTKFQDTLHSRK
As to the kind of experiment: Inhibition of C-terminal FLAG-6x-His epitope tagged and N-terminal human RAGE signal sequence tagged human BMP1 (23 to 721 amino acids) expressed in CHO-E1 cells pre-incubated for 10 mins before promyostatin peptide substrate addition and measured after 60 mins using 0.5 nM BMP1 by FRET based assay. The class given is cell-based.

Experiment [2] has as its target T1, Bone morphogenetic protein 1. As to the kind of experiment: Inhibition of C-terminal FLAG-6x-His epitope tagged and N-terminal human RAGE signal sequence tagged human BMP1 (23 to 721 amino acids) expressed in CHO-E1 cells pre-incubated for 10 mins before promyostatin peptide substrate addition and measured after 30 mins using 50 nM BMP1 by FRET based assay. The class given is cell-based.

The target in another experiment is Tolloid-like protein 1 (Homo sapiens, UniProt O43897, I156V/N221S/V284A). As to the kind of experiment: Inhibition of recombinant human TLL1 I156V/N221S/V284A mutant expressed in CHOE1A cells pre-incubated for 10 mins before promyostatin peptide substrate addition and measured after 60 mins by FRET based assay. It is filed as cell-based.
The target of a further experiment is T2, Tolloid-like protein 2 (Homo sapiens, UniProt Q9Y6L7).
T2 sequence (Q9Y6L7 whole entry): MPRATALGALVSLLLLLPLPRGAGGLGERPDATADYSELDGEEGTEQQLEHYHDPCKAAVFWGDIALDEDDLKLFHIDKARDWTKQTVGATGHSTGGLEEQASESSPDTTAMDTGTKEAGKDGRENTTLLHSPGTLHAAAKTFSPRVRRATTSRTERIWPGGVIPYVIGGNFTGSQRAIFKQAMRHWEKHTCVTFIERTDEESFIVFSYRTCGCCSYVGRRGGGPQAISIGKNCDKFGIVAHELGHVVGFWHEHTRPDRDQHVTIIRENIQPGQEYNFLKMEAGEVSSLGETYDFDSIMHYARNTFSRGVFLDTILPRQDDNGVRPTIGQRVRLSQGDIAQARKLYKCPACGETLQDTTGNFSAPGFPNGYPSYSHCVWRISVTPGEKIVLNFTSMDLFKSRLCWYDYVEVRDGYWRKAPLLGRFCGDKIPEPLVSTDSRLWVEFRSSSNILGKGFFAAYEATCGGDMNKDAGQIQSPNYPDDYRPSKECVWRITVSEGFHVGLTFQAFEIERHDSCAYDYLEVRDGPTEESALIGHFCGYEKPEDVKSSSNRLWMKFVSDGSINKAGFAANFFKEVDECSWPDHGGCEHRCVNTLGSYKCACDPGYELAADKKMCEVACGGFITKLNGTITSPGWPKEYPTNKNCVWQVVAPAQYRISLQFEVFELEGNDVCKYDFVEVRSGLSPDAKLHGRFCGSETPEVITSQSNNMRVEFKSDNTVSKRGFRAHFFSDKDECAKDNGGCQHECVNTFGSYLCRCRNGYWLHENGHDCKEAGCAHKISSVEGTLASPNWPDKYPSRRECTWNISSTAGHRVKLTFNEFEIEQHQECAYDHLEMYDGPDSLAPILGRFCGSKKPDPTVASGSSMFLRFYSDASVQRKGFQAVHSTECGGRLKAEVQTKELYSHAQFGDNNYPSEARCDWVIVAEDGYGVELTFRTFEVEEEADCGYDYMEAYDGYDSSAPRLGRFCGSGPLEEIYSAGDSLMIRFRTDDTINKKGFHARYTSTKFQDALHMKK
The experiment in a line: Inhibition of C-terminal Avi-6x-His epitope tagged and N-terminal human RAGE signal sequence tagged recombinant human TLL2 (26 to 1015 amino acids) expressed in CHOE1A cells incubated for 60 mins with promyostatin peptide substrate by FRET based assay. The class given is cell-based.

Experiment [3] in a line: Reduction in PICP levels in human cardiac fibroblasts incubated for 24 to 48 hrs by ELISA. It is filed as functional. A digest of the protocol:
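Human cardiac fibroblasts no older than passage 6 were seeded at 10,000 to 15,000 cells per well in 96-well plates and, one day later, exposed for 24 to 48 hr at 37° C to treatment in ficoll crowding EMEM with 100 μM ascorbic acid and less than 0.3% DMSO. IC50 was determined in GraphPad Prism from a log(inhibitor)-response fit of procollagen I C-terminal propeptide levels in the medium, measured by Quidel ELISA and expressed relative to untreated controls.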

Experiment [4] is described as follows: Reduction in mature collagen deposition levels in human cardiac fibroblasts incubated for 24 to 48 hrs by immunostaining based assay. It is filed as functional. An outline of the steps:
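Methanol fixation at −20° C for 10 min followed a 24 to 48 hr treatment at 37° C of human cardiac fibroblasts in 96-well plates, in ficoll crowding EMEM with 100 μM ascorbic acid and DMSO under 0.3%. Imaging on an Operetta system captured anti-mature collagen I staining, detected with an Alexa647 secondary antibody, alongside Hoechst-stained nuclei. In GraphPad Prism, an IC50 was fitted to collagen intensity normalised to nuclei count per field.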

Chain of Tolloid-like protein 1 (O43897 148-1013 I156V/N221S/V284A limits assumed): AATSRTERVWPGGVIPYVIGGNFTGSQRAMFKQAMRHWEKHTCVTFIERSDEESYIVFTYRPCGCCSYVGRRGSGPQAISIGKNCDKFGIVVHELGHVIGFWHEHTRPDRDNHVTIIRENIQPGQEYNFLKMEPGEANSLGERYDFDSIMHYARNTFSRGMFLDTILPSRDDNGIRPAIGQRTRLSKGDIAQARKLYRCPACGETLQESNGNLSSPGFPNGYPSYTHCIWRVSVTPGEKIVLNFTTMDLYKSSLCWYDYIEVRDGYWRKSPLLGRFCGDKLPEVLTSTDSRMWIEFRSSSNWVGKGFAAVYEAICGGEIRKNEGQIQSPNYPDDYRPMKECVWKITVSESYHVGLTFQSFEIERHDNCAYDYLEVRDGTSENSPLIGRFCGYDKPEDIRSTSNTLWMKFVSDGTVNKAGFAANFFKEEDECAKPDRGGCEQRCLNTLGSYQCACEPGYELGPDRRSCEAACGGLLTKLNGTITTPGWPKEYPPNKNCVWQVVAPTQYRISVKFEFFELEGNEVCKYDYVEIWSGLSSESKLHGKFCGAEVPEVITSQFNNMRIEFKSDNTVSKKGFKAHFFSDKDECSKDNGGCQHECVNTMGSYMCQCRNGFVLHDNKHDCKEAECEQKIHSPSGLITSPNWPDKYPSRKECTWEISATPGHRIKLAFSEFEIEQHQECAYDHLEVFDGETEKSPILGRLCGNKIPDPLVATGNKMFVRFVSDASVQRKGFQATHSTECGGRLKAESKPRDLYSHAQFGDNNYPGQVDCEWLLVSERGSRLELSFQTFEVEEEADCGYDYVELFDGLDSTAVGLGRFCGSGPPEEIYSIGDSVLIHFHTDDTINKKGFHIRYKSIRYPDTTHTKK

Take `CCOc1cc(-c2ccc(C(=O)NCNC(=O)[C@H](CCc3ccccc3)[C@@H](CC)N(O)C=O)o2)ccc1C(=O)N[C@@H](CC(=O)O)C(=O)O`: the concentration for half-maximal inhibition (IC50) in experiment [1] is under 126 nM; in experiment [2] it was under 200 nM; at Tolloid-like protein 1 it was under 398 nM; at Tolloid-like protein 2, under 794 nM; in experiment [3] it was under 3980 nM; in experiment [4], under 1000 nM.
Turning to `CCCCC[C@@H](C(=O)NCNC(=O)c1ccc(-c2ccc(C(=O)N[C@@H](CC(=O)O)C(=O)O)c(OCC)c2)o1)[C@@H](CC)N(O)C=O`, the half-maximal inhibitory concentration (IC50) in experiment [1] was under 126 nM; in experiment [2], under 200 nM; at Tolloid-like protein 1, under 398 nM; on Tolloid-like protein 2, under 794 nM; in experiment [3], under 3980 nM; in experiment [4], under 1000 nM.
As to `CCCCC[C@@H](C(=O)NCNC(=O)c1ccc(-c2ccc(P(=O)(O)O)c(OCC)c2)o1)[C@@H](CC)N(O)C=O`, the IC50 was under 126 nM in experiment [1]; under 200 nM in experiment [2]; under 398 nM at Tolloid-like protein 1; under 794 nM on Tolloid-like protein 2; under 3980 nM in experiment [3]; under 1000 nM in experiment [4].
Consider `CCCCC[C@@H](C(=O)NCNC(=O)c1ccc(-c2cc(OCC)cc(C(=O)N[C@@H](CC(=O)O)C(=O)OC(C)(C)C)c2)o1)[C@@H](CC)N(O)C=O`, for which the IC50 in experiment [1] is under 126 nM; in experiment [2], under 200 nM; at Tolloid-like protein 1, under 398 nM; on Tolloid-like protein 2 it was under 794 nM; in experiment [3] it was under 3980 nM; in experiment [4], under 1000 nM.
On to `CCCCC[C@@H](C(=O)NCNC(=O)c1ccc(-c2ccc(C(=O)N[C@@H](CC(=O)O)C(=O)O)c(OCC(=O)O)c2)o1)[C@@H](CC)N(O)C=O`, for which the IC50 was under 126 nM in experiment [1]; under 200 nM in experiment [2]; under 398 nM on Tolloid-like protein 1; under 794 nM on Tolloid-like protein 2; under 3980 nM in experiment [3]; under 1000 nM in experiment [4].
`CCCCC[C@@H](C(=O)NCNC(=O)c1ccc(-c2cc(OCC)cc(C(=O)O)c2O)o1)[C@@H](CC)N(O)C=O`: the IC50 is under 126 nM in experiment [1]; under 200 nM in experiment [2]; under 398 nM on Tolloid-like protein 1; under 794 nM at Tolloid-like protein 2; under 3980 nM in experiment [3]; under 1000 nM in experiment [4].
As for `CCCCC[C@@H](C(=O)NCNC(=O)c1ccc(-c2ccc(C(=O)N(CC(=O)O)CC(=O)O)c(OCC)c2)o1)[C@@H](CC)N(O)C=O`, the IC50 in experiment [1] was under 126 nM; in experiment [2] it was under 200 nM; at Tolloid-like protein 1, under 398 nM; on Tolloid-like protein 2, under 794 nM; in experiment [3] it was under 3980 nM; in experiment [4] it was under 1000 nM.
For the molecule `CCCCC[C@@H](C(=O)NCNC(=O)c1ccc(-c2cc(OCC)cc(C(=O)N[C@@H](CCC(=O)O)C(=O)O)c2)o1)[C@@H](CC)N(O)C=O`, the IC50 was under 126 nM in experiment [1]; under 200 nM in experiment [2]; under 398 nM on Tolloid-like protein 1; under 794 nM at Tolloid-like protein 2; under 3980 nM in experiment [3]; under 1000 nM in experiment [4].
For the molecule `CCCCC[C@H](CN(O)C=O)C(=O)NCNC(=O)c1ccc(-c2cccc(SC)c2)o1`, the IC50 in experiment [1] was under 126 nM; in experiment [2], under 200 nM; at Tolloid-like protein 1, under 398 nM; at Tolloid-like protein 2, under 794 nM; in experiment [3], under 3980 nM.
Taken in the same sequence, the figures for `CCCCC[C@H](CN(O)C=O)C(=O)NCNC(=O)c1ccc(-c2cccc(S(=O)(=O)NC(=O)CC)c2)o1` were under 126 nM, under 200 nM, under 398 nM, under 794 nM and under 3980 nM.
For `CCCCC[C@@H](C(=O)NCNC(=O)c1ccc(-c2cccc(C(=O)N[C@@H](CC(=O)O)C(=O)O)c2)o1)[C@@H](CC)N(O)C=O`, in that order: under 126 nM, under 200 nM, under 398 nM, under 794 nM and under 3980 nM.
For `CCCCC[C@@H](C(=O)NCNC(=O)C1CCC(c2cc(OCC)cc(P(=O)(O)O)c2)O1)[C@@H](CC)N(O)C=O` (stereo partly drawn), in that order: under 126 nM, under 200 nM, under 398 nM, under 794 nM and under 3980 nM.
For `CCCCC[C@@H](C(=O)NCNC(=O)c1ccc(-c2cc(OCC)cc(C(=O)N[C@H](CC(=O)O)C(=O)O)c2)o1)[C@@H](CC)N(O)C=O`, the IC50 is under 126 nM in experiment [1]; under 200 nM in experiment [2]; under 398 nM on Tolloid-like protein 1; under 794 nM at Tolloid-like protein 2; under 3980 nM in experiment [3].
Taken in the same sequence, the figures for `CCCCC[C@H](CN(O)C=O)C(=O)NCNC(=O)c1ccc(-c2cccc(C(=O)O)c2C)o1` were under 126 nM, under 200 nM, under 398 nM, under 794 nM and under 3980 nM.
Taken in the same sequence, the figures for `CCCCC[C@H](CN(O)C=O)C(=O)NCNC(=O)c1ccc(-c2cc(OCC)cc(C(=O)O)c2)o1` were under 126 nM, under 200 nM, under 398 nM, under 794 nM and under 3980 nM.
Taken in the same sequence, the figures for `CCCCC[C@@H](C(=O)NCNC(=O)c1ccc(-c2cc(OCC(=O)O)cc(C(=O)N[C@@H](CC(=O)O)C(=O)O)c2)o1)[C@@H](CC)N(O)C=O` were under 126 nM, under 200 nM, under 398 nM, under 794 nM and under 3980 nM.
`CCCCC[C@@H](C(=O)NCNC(=O)c1ccc(-c2ccc(C(=O)N(CC(=O)O)CC(=O)O)cc2)o1)[C@@H](CC)N(O)C=O`: the IC50 in experiment [1] was under 126 nM; in experiment [2], under 200 nM; on Tolloid-like protein 1 it was under 398 nM; on Tolloid-like protein 2, under 794 nM; in experiment [3], under 3980 nM.
